Source: patent US12534457B2, “Heteroaryl derivative compounds, and uses thereof” (Voronoi Inc., priority 2021, dated 2026)

tested on: Ba/F3 cells expressing EGFR Del19/C797S (EGFR DC); experiment: Proliferation inhibitory activity, Ba/F3 cells expressing EGFR Del19/C797S (CellTiter-Glo); format: cell-based; conditions: Mus musculus, BaF3, 72 hours of compound treatment
Description: The following experiments were performed to evaluate the inhibitory activity of the compounds according to the present disclosure on Ba/F3 proliferation expressing EGFR C797S, L861Q, G719A, S768I, L718Q, and/or G724S mutations.
For Ba/F3 cells, RPMI-1640 containing 10% FBS and 5 ng/ml IL-3 (R&D Systems) was used. Transduced Ba/F3 cells were cultured after adding 1 μg/ml puromycin (Invitrogen) to the same medium.
At 24 hours before treatment with the compounds, 3000 to 5000 cells were aliquoted into each well of a white clear bottom 96 well plate (Corning). The compounds were diluted in dimethyl sulfoxide (3 times dilution, 12 concentrations in total), and injected in an amount of 1 μl so that the final concentration was 0.2 nM to 5 uM. For measurement of living cells, after 72 hours of compound treatment, the cells were stored at room temperature for 10 min using CellTiter-Glo luminescentcell-viability reagent (Promega), and then luminescence intensity was measured using a reader (SynergyNeo, Biotek). Each test was repeated three times. Result values were calculated as the cell growth rate (%) compared to the control. The graphs were created using GraphPad Prism version 8.3.0 program and the GI50 values were calculated.

Question: Which GI50 does the source give for `CN1CCN(C2CCN(c3ccc(Nc4cc(N5OCC[C@@H]5c5ccccc5)ncn4)cc3)CC2)CC1` [Example 54, (R)—N-(4-(4-(4-methylpiperazin-1-yl)piperidin-1-yl)phenyl)-6-(3-phenylisoxazolidin-2-yl)pyrimidin-4-amine] here?
Answer: Its GI50 is < 50 nM.

Question: With `C[C@@H](Oc1cc(N2CCC(N3CCN(C)CC3)CC2)ccc1Nc1cc(N2OCC[C@@H]2c2ccccc2)ncn1)C(F)(F)F` [Example 56, N-(4-(4-(4-methylpiperazin-1-yl)piperidin-1-yl)-2-(((R)-1,1,1-trifluoropropan-2-yl)oxy)phenyl)-6-((R)-3-phenylisoxazolidin-2-yl)pyrimidin-4-amine] as the compound, how does the GI50 read?
Answer: Its GI50 is < 50 nM.

Question: For `COc1cc(N2CCC(N3C[C@H]4C[C@@H]3CN4C)CC2)ccc1Nc1cc(N2OCC[C@@H]2c2ccccc2)ncn1` [Example 57, N-(2-methoxy-4-(4-((1R,4R)-5-methyl-2,5-diazabicyclo[2.2.1]heptan-2-yl)piperidin-1-yl)phenyl)-6-((R)-3-phenylisoxazolidin-2-yl)pyrimidin-4-amine], which GI50 is on record?
Answer: Its GI50 is < 50 nM.

Question: Which GI50 does the source give for `COc1cc(N2C[C@H]3C[C@@H]2CO3)ccc1Nc1cc(N2OCC[C@@H]2c2ccccc2)ncn1` [Example 59, N-(4-((1R,4R)-2-oxa-5-azabicyclo[2.2.1]heptan-5-yl)-2-methoxyphenyl)-6-((R)-3-phenylisoxazolidin-2-yl)pyrimidin-4-amine] here?
Answer: The GI50 was < 50 nM.

Question: For `COc1cc(N2CCC(N3CCN(C4CC4)C(C)(C)C3)CC2)ccc1Nc1cc(N2OCC[C@@H]2c2ccccc2)ncn1` [Example 61, (R)—N-(4-(4-(4-cyclopropyl-3,3-dimethylpiperazin-1-yl)piperidin-1-yl)-2-methoxyphenyl)-6-(3-phenylisoxazolidin-2-yl)pyrimidin-4-amine], which GI50 is on record?
Answer: Its GI50 is < 50 nM.

Question: How did the GI50 turn out when `COc1cc(N2CCC(N3CCCC3)CC2)ccc1Nc1cc(N2OCC[C@@H]2c2ccccc2)ncn1` [Example 62, (R)—N-(2-methoxy-4-(4-(pyrrolidin-1-yl)piperidin-1-yl)phenyl)-6-(3-phenylisoxazolidin-2-yl)pyrimidin-4-amine] was run?
Answer: Its GI50 is < 50 nM.

Question: For `COc1cc(N2CCC(N3CCC(N4CCN(C5CC5)CC4)CC3)CC2)ccc1Nc1cc(N2OCC[C@@H]2c2ccccc2)ncn1` [Example 63, (R)—N-(4-(4-(4-cyclopropylpiperazin-1-yl)-[1,4′-bipiperidin]-1′-yl)-2-methoxyphenyl)-6-(3-phenylisoxazolidin-2-yl)pyrimidin-4-amine], which GI50 is on record?
Answer: The GI50 was < 50 nM.

Question: How did the GI50 turn out when `COc1cc(OCCN(C)C)ccc1Nc1cc(N2OCC[C@@H]2c2ccccc2)ncn1` [Example 64, (R)—N-(4-(2-(dimethylamino)ethoxy)-2-methoxyphenyl)-6-(3-phenylisoxazolidin-2-yl)pyrimidin-4-amine] was run?
Answer: Its GI50 is < 50 nM.

Question: With `COc1cc(SCCN(C)C)ccc1Nc1cc(N2OCC[C@@H]2c2ccccc2)ncn1` [Example 65, (R)—N-(4-((2-(dimethylamino)ethyl)thio)-2-methoxyphenyl)-6-(3-phenylisoxazolidin-2-yl)pyrimidin-4-amine] as the compound, how does the GI50 read?
Answer: The GI50 was < 50 nM.

Question: Which GI50 does the source give for `COc1cc(N2CCSCC2)ccc1Nc1cc(N2OCC[C@@H]2c2ccccc2)ncn1` [Example 66, (R)—N-(2-methoxy-4-thiomorpholinophenyl)-6-(3-phenylisoxazolidin-2-yl)pyrimidin-4-amine] here?
Answer: The GI50 was < 50 nM.

Question: Which GI50 does the source give for `COc1cc(N2CCCN(C)CC2)ccc1Nc1cc(N2OCC[C@@H]2c2ccccc2)ncn1` [Example 67, (R)—N-(2-methoxy-4-(4-methyl-1,4-diazepan-1-yl)phenyl)-6-(3-phenylisoxazolidin-2-yl)pyrimidin-4-amine] here?
Answer: The GI50 was < 50 nM.

Question: For `C=CCN1CCN(c2ccc(Nc3cc(N4OCC[C@@H]4c4ccccc4)ncn3)cc2)CC1` [Example 68, (R)—N-(4-(4-allylpiperazin-1-yl)phenyl)-6-(3-phenylisoxazolidin-2-yl)pyrimidin-4-amine], which GI50 is on record?
Answer: The GI50 was < 50 nM.

Question: How did the GI50 turn out when `CN(C)[C@@H]1CCN(c2ccc(Nc3cc(N4OCC[C@@H]4c4ccccc4)ncn3)cc2)C1` [Example 69, N-(4-((R)-3-(dimethylamino)pyrrolidin-1-yl)phenyl)-6-((R)-3-phenylisoxazolidin-2-yl)pyrimidin-4-amine] was run?
Answer: Its GI50 is < 50 nM.

Question: How did the GI50 turn out when `CN1CCN(C(=O)c2ccc(Nc3cc(N4OCC[C@@H]4c4ccccc4)ncn3)cc2)CC1` [Example 72, (R)-(4-methylpiperazin-1-yl) (4-((6-(3-phenylisoxazolidin-2-yl)pyrimidin-4-yl)amino)phenyl)methanone] was run?
Answer: Its GI50 is 50 to 500 nM.

Question: With `FC(F)(F)c1cccc(Nc2cc(N3OCC[C@@H]3c3ccccc3)ncn2)c1` [Example 73, (R)-6-(3-phenylisoxazolidin-2-yl)-N-(3-(trifluoromethyl)phenyl)pyrimidin-4-amine] as the compound, how does the GI50 read?
Answer: The GI50 was 50 to 500 nM.

Question: For `Fc1ncc(N2C[C@@H]3C[C@H]2CO3)cc1Nc1cc(N2OCC[C@@H]2c2ccccc2)ncn1` [Example 74, N-(5-((1S,4S)-2-oxa-5-azabicyclo[2.2.1]heptan-5-yl)-2-fluoropyridin-3-yl)-6-((R)-3-phenylisoxazolidin-2-yl)pyrimidin-4-amine], which GI50 is on record?
Answer: Its GI50 is < 50 nM.

Question: How did the GI50 turn out when `O=C1CCCN1c1ccc(Nc2cc(N3OCC[C@@H]3c3ccccc3)ncn2)cc1` [Example 75, (R)-1-(4-((6-(3-phenylisoxazolidin-2-yl)pyrimidin-4-yl)amino)phenyl)pyrrolidin-2-one] was run?
Answer: Its GI50 is < 50 nM.

Question: Which GI50 does the source give for `CN1Cc2cc(Nc3cc(N4OCC[C@@H]4c4ccccc4)ncn3)ccc2C1=O` [Example 76, (R)-2-methyl-5-((6-(3-phenylisoxazolidin-2-yl)pyrimidin-4-yl)amino)isoindolin-1-one] here?
Answer: The GI50 was < 50 nM.

Question: How did the GI50 turn out when `c1ccc([C@H]2CCON2c2cc(Nc3ccc(N4CCNCC4)cc3)ncn2)cc1` [Example 77, (R)-6-(3-phenylisoxazolidin-2-yl)-N-(4-(piperazin-1-yl)phenyl)pyrimidin-4-amine] was run?
Answer: Its GI50 is < 50 nM.

Question: How did the GI50 turn out when `c1ccc([C@H]2CCON2c2cc(Nc3ccc4c(c3)CCNC4)ncn2)cc1` [Example 78, (R)—N-(6-(3-phenylisoxazolidin-2-yl)pyrimidin-4-yl)-1,2,3,4-tetrahydroisoquinolin-6-amine] was run?
Answer: The GI50 was < 50 nM.

Question: For `Cn1nccc1-c1ccc(Nc2cc(N3OCC[C@@H]3c3ccccc3)ncn2)c2c1OCCO2` [Example 80, (R)—N-(8-(1-methyl-1H-pyrazol-5-yl)-2,3-dihydrobenzo[b][1,4]dioxin-5-yl)-6-(3-phenylisoxazolidin-2-yl)pyrimidin-4-amine], which GI50 is on record?
Answer: The GI50 was 50 to 500 nM.

Question: With `COc1cc(P2(=O)CCN(C3CC3)CC2)ccc1Nc1cc(N2OCC[C@@H]2c2ccccc2)ncn1` [Example 81, (R)-1-cyclopropyl-4-(3-methoxy-4-((6-(3-phenylisoxazolidin-2-yl)pyrimidin-4-yl)amino)phenyl)-1,4-azaphosphinane 4-oxide] as the compound, how does the GI50 read?
Answer: The GI50 was 50 to 500 nM.

Question: How did the GI50 turn out when `c1ccc([C@H]2CCON2c2cc(Nc3ccc4c(c3)CC[C@H](N3CCCC3)CC4)ncn2)cc1` [Example 83, 6-((R)-3-phenylisoxazolidin-2-yl)-N—((R)-7-(pyrrolidin-1-yl)-6,7,8,9-tetrahydro-5H-benzo[7]annulen-2-yl)pyrimidin-4-amine] was run?
Answer: Its GI50 is < 50 nM.

Question: How did the GI50 turn out when `CCC(=O)Nc1cc(Nc2cc(N3OCC[C@@H]3c3cc(F)cc(F)c3)ncn2)c(OC)cc1N1CCC(N2CCC(N(C)C)CC2)CC1` [Example 85, (R)—N-(5-((6-(3-(3,5-difluorophenyl)isoxazolidin-2-yl)pyrimidin-4-yl)amino)-2-(4-(dimethylamino)-[1,4′-bipiperidin]-1′-yl)-4-methoxyphenyl)propionamide] was run?
Answer: The GI50 was < 50 nM.
